The test has as its target TNFα (Homo sapiens, UniProt P01375). The test can be described thus: TNF-Induced HEK-Blue Assay. Format: cell-based. The settings on record: HEK-Blue-CD40L cells, NF-kB-driven secreted alkaline phosphatase reporter; TNFα 0.5 ng/ml; 18 h; read-out: TNF induced HEK-Blue assay IC50 value.

Positions of bridges follow the written chain, without caps; N, C: chain ends. Non-standard residues stand in square brackets, D forms with d. Residues, ends and D or L forms follow the SMILES beside them. Bip(4'-NHCO-C6H4-4-CH2COOH) = N[C@@H](Cc1ccc(-c2ccc(NC(=O)c3ccc(CC(=O)O)cc3)cc2)cc1)C(=O)O; Ala(imidazol-2-yl) = N[C@@H](Cc1ncc[nH]1)C(=O)O; dArg(ω-Bn) = N=C(NCCC[C@@H](N)C(=O)O)NCc1ccccc1; Ala(morpholin-4-yl) = N[C@@H](CN1CCOCC1)C(=O)O; Bip = N[C@@H](Cc1ccc(-c2ccccc2)cc1)C(=O)O; 2Pal = N[C@@H](Cc1ccccn1)C(=O)O; Sar = CNCC(=O)O

Chain of TNFα (P01375 77-233 limits assumed): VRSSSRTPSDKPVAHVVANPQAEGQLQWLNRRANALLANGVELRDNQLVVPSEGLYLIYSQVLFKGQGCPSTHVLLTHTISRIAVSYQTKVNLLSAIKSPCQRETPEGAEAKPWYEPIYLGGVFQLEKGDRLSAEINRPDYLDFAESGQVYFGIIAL

Take `CC(C)C[C@@H]1NC(=O)[C@H](Cc2ncc[nH]2)NC(=O)[C@H](C(C)C)NC(=O)[C@@H]2CCCN2C(=O)[C@H](C(C)C)NC(=O)[C@@H](CCCNC(=N)NCc2ccccc2)NC(=O)[C@H](CC(=O)O)NC(=O)[C@H](Cc2ccccn2)NC(=O)CN(C)C(=O)[C@H](Cc2ccc(-c3ccc(NC(=O)c4ccc(CC(=O)O)cc4)cc3)cc2)NC(=O)[C@H](Cc2ccc(-c3ccccc3)cc2)NC(=O)[C@H](CN2CCOCC2)NC(=O)CSC[C@@H](C(=O)NCC(N)=O)NC1=O` [Example 642] ({CH2CO}-[Ala(morpholin-4-yl)][Bip][Bip(4'-NHCO-C6H4-4-CH2COOH)][Sar][2Pal]D[dArg(ω-Bn)]VPV[Ala(imidazol-2-yl)]LCG-NH2; thioether N-13): the IC50 lay in the range of 200 to 2000 nM.

Source of the values: patent publication US20250145665A1, “MACROCYCLIC PEPTIDES USEFUL AS MODULATORS OF TNF ALPHA” (Bristol-Myers Squibb Company, priority 2023, published 2025).
